Laboratory results as given in patent US10543132B2, “Absorbent article with blood modifying agent” (UNICHARM CORPORATION, priority 2011, dated 2020).

How the values were obtained:
[1] = at 20° C.; cited from earlier work
[2] = Source text: As used herein, the term “solubility” in regard to water solubility includes cases where the sample completely dissolves in deionized water to form a homogeneous mixture, and cases where the sample is completely emulsified. As used herein, “completely” means that no mass of the sample remains in the deionized water.
[3] = Surface tension of blood containing blood modifying agent, pendant drop method (Example 6); conditions: sheep defibrinated blood; amount 0.10 mass %; 35 ° C.; without agent 62.1
Method: The surface tension of blood containing a blood modifying agent was measured by the pendant drop method, using a Drop Master500 contact angle meter by Kyowa Interface Science Co., Ltd. The surface tension was measured after adding a prescribed amount of blood modifying agent to sheep defibrinated blood, and thoroughly shaking. The measurement was accomplished automatically with a device, and the […] γ was determined by the following formula (see FIG. 4). γ=g×ρ×(de)^2×1/H The density ρ was measured at the temperatures listed in Table 5, according to JIS K 2249-1995, “Density test methods and density/mass/volume conversion tables”, “5. Vibrating density test method”. The measurement was accomplished using a DA-505 by Kyoto Electronics Co., Ltd.

Row | Compound | Water solubility [2] [g] | also measured
1 | CCCCC(=O)CCCC [5-nonanone] |  | vapor pressure [1]: about 230 Pa
2 | CC(C)CCCCCCCCCCCCCCCOC(=O)CC(O)C(=O)OCCCCCCCCCCCCCCCC(C)C (stereo not shown) [Diisostearyl malate, Diisostearyl Malate] |  | Water solubility (g) [2]: 20< g
3 | CCCCCCCCCCCCOC(=O)CCCCCCCCCCC [ELECTOL WE20, Ester of dodecanoic acid (C12) and dodecyl alcohol (C12)] |  | Surface tension (mN/m) [3]: 58.8 mN/m
4 | CCCCC(CC)C(=O)OCC(C)(C)COC(=O)C(CC)CCCC (stereo not shown) [H-208BRS, Neopentylglycol di-2-ethylhexanoate] | <0.05 | 
5 | CCCCC(CC)C(=O)OCC(COC(=O)C(CC)CCCC)OC(=O)C(CC)CCCC (stereo not shown) [PANACET 800B] | <0.05 | 
6 | CCCCCCCC(=O)OCC(COC(=O)CCCCCCC)OC(=O)CCCCCCC [PANACET 800] | <0.05 | 
7 | CCCCOC(=O)CC(CC(=O)OCCCC)(OC(C)=O)C(=O)OCCCC [Tributyl O-acetylcitrate, Tributyl O-Acetylcitrate] | <0.05 | 
